# Test system: BT-474 human breast carcinoma
# Experiment: Effect on the tumor growth: BT-474 human breast carcinoma xenograft in nude mice
# Format: in vivo
# Details: for Average daily weight of the tumor: Group 6: Paclitaxel 16 mg/kg i.p. once a day for 5 days
# Procedure: Female nude mice (nulnu) between 5 and 6 weeks of age weighing approximately 20 g were obtained from Harlan, Inc. (Madison, Wis.). The BT-474 human breast carcinoma cell line was obtained from the American Type Culture Collection (ATCC). BT-474 was established by E. Lasfargues and W. G. Coutinho from a solid carcinoma of the breast obtained from a patient (2). Twenty-one-day release 17β-estradiol pellets at 0.25 mg (Innovative Research of America) were implanted subcutaneously into each mouse. The following day, animals were implanted s.c. by trocar with fragments of human tumor carcinomas harvested from s.c. growing tumors in nude mice hosts. When the tumors were approximately 40 mg in size (24 days following inoculation), the animals were pair-matched into treatment and control groups. All of the groups contained 9 mice. All of the animals were ear-tagged and followed individually throughout the experiment.
# The mice of each group were administered intra peritoneally with 2 ml of the following composition:
# Group 1: (control) sterile H2O, 5 times a day
# Mice were weighed twice weekly, and tumor measurements were obtained using calipers twice weekly, starting on Day 1. These tumor measurements were converted to mg tumor weight by the standard formula, (W^2×L)/2 (2). The experiment was terminated when the control group tumor size reached an average of 500 mg. Upon termination (Day 46), the mice were weighed, sacrificed and their tumors were excised. The tumors were weighed, and the mean tumor weight per group was calculated.
# With this agent, the final weight of a given tumor was subtracted from its own weight at the start of treatment on Day 1. This difference was divided by the initial tumor weight to give the % regression. A mean % tumor regression was calculated from data from mice in a group that experienced tumor regressions.
compound,measurement,setting,value
CC(=O)O[C@H]1C(=O)[C@@]2(C)[C@H]([C@H](OC(=O)c3ccccc3)[C@]3(O)C[C@H](OC(=O)[C@H](O)[C@@H](NC(=O)c4ccccc4)c4ccccc4)C(C)=C1C3(C)C)[C@]1(OC(C)=O)CO[C@@H]1C[C@@H]2O [Paclitaxel],tumor regression (in words),Paclitaxel 16 mg/kg i.p. once a day for 5 days,caused tumor regression
same,Average daily weight of the tumor,day 5,3906 mg
same,Average daily weight of the tumor,day 9,54.2 mg
same,Average daily weight of the tumor,day 16,77.3 mg
same,Average daily weight of the tumor,day 19,79.4 mg
same,Average daily weight of the tumor,day 23,108.0 mg
same,Average daily weight of the tumor,day 26,123.8 mg
same,Average daily weight of the tumor,day 29,149.5 mg
same,Average daily weight of the tumor,day 32,188.8 mg
same,Average daily weight of the tumor,day 36,220.3 mg
same,Average daily weight of the tumor,day 39,244.8 mg
same,Average daily weight of the tumor,day 43,299.6 mg
same,Average daily weight of the tumor,day 46,376.3 mg

# Source: patent publication US7070778B2, “Therapeutical combination against cancer” (Laboratoire Goemar SA, priority 2003, dated 2006)
